According to ChEMBL document CHEMBL3232965, “The σ2 receptor: a novel protein for the imaging and treatment of cancer” (J Med Chem, 2013):

What was measured:
[1] = Selectivity ratio of Ki for guinea pig brain sigma-1 opioid receptor to Ki for rat liver sigma-2 opioid receptor
[2] = Displacement of [3H]-DTG from sigma-2 opioid receptor in rat liver
Cavia porcellus [3] = species on record: Cavia porcellus; experiment: Selectivity ratio of Ki for guinea pig brain membrane sigma-1 opioid receptor to Ki for guinea pig brain membrane sigma-2 opioid receptor
[4] = Binding affinity to guinea pig brain membrane sigma-2 opioid receptor by radioligand displacement assay; parameters: species or system Cavia porcellus
[5] = target: Sigma non-opioid intracellular receptor 1 (Cavia porcellus, UniProt Q60492); experiment: Binding affinity to guinea pig brain membrane sigma-1 opioid receptor by radioligand displacement assay
Sigma non-opioid intracellular receptor 1 (Cavia porcellus, UniProt Q60492), sequence (Q60492 whole entry): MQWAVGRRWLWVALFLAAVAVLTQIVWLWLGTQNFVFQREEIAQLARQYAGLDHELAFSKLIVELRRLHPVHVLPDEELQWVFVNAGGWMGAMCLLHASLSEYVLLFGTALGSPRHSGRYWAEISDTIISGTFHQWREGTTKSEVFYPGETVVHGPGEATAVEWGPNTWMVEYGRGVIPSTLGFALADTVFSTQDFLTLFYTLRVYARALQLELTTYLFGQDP

Homo sapiens [6] = species on record: Homo sapiens; experiment: Selectivity ratio of Ki for sigma-1 opioid receptor (unknown origin) to Ki for sigma-2 opioid receptor (unknown origin)
[7] = Binding affinity to sigma-2 opioid receptor (unknown origin); parameters: species or system Homo sapiens
Cavia porcellus [8] = species on record: Cavia porcellus; experiment: Selectivity ratio of Ki for guinea pig hippocampus sigma-1 opioid receptor to Ki for guinea pig hippocampus sigma-2 opioid receptor
[9] = Binding affinity to guinea pig hippocampus sigma-2 opioid receptor; parameters: species or system Cavia porcellus
[10] = Displacement of [3H]di-o-tolylguanidine from sigma-2 opioid receptor in rat brain; format: tissue-based
[11] = Lipophilicity, log P of the compound; format: physicochemical; conditions: octanol/water
[12] = Binding affinity to sigma-1 opioid receptor (unknown origin)
[13] = target: Sigma non-opioid intracellular receptor 1 (Homo sapiens, UniProt Q99720); experiment: Binding affinity to sigma-1 opioid receptor (unknown origin)
Sigma non-opioid intracellular receptor 1 (Homo sapiens, UniProt Q99720), sequence (Q99720 whole entry): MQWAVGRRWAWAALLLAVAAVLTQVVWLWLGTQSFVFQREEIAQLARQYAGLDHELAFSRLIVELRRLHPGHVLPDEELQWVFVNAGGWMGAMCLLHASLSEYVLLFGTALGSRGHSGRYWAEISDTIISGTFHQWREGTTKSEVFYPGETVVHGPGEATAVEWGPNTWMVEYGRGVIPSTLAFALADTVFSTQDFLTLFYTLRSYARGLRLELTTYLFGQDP

TRAMP = experiment: Selectivity ratio of Ki for sigma-1 opioid receptor in TRAMP cell membranes to Ki for sigma-2 opioid receptor in TRAMP cell membranes; format: cell-based; conditions: Mus musculus
[14] = Ratio of drug level in nuclear fraction to cytosolic fraction of human MCF7/ADR cells at 20 to 50 uM after 2 hrs by beta counting analysis; format: ADME, cell-based; conditions: nci/adr-res
[15] = Ratio of drug level in nuclear fraction to cytosolic fraction of human SK-N-SH cells at 20 to 50 uM after 2 hrs by beta counting analysis; format: ADME, cell-based
[16] = Displacement of [3H]progesterone from sigma-1 opioid receptor in porcine liver microsome membranes; format: microsomes, Sus scrofa
Homo sapiens [17] = species on record: Homo sapiens; experiment: Selectivity ratio of IC50 for sigma-1 opioid receptor (unknown origin) to IC50 for sigma-2 opioid receptor (unknown origin)
[18] = Displacement of [3H]ditolylguanidine from sigma-2 opioid receptor in rat liver membranes by liquid scintillation spectrometric analysis; format: cell membranes, Membrane

Compound	Ratio Ki (Homo sapiens [6])	Ki [7] [nM]	Ki [13] [nM]	also measured
COc1cccc2c1CCC[C@@H]2NC(=O)CN1CCN(C2CCCCC2)CC1				Ratio Ki [1]: 16; Ki [2]: 6 nM
OC12C3C4CC5C6C4C1C6C(C53)N2Cc1ccc(F)cc1 (stereo not drawn)				Ratio Ki (Cavia porcellus [3]): 7.6; Ki [4]: 20 nM; Ki [5]: 152 nM
CC[C@H]1C[C@H]2C[C@H]3c4[nH]c5ccc(OC)cc5c4CCN(C2)[C@@H]13 [IBOGAINE]	43	201		
COc1cccc2c1CCCC2CCCC1CCN(C2CCCCC2)CC1 (stereo not drawn)				Ratio Ki [1]: 29; Ki [2]: 26.6 nM
CCn1c(=O)n(C(=O)NC2CC3CCC(C2)N3C)c2ccccc21 (stereo not drawn)				Ratio Ki (Cavia porcellus [8]): 197; Ki [9]: 32 nM
CC(=O)c1ccc2c(c1)oc(=O)n2CCCCN1CCN(c2ccc(F)cc2)CC1				Ki [10]: 7 nM
COc1cc(Br)cc(C(=O)NCCCCN2CCN(c3cccc(Cl)c3Cl)CC2)c1OC		75		logP [11]: 5.76; Ki [12]: 809 nM
COc1cc2c(cc1OC)CN(CCNC(=O)c1cc(Br)cc(OC)c1OC)CC2	179	16.4		Ki [12]: 2930 nM
COc1cc2c(cc1OC)CN(CCCCNC(=O)c1cc(Br)cc(OC)c1OC)CC2		8.2		
Fc1ccccc1N1CCN(CCCn2ccc3ccccc32)CC1	20	75	1490	
COC(=O)[C@@]1(c2ccccc2)C[C@H]1CN1C2CCC1CC(O)(c1ccc(Cl)cc1)C2 (stereo partly drawn)				Ratio Ki (Cavia porcellus [3]): 20.6
COc1cccc2c(CCCN3CCN(C4CCCCC4)CC3)cccc12				Ratio Ki (TRAMP): 13
COc1cccc2c1CCCC2CCCN1CCN(C2CCCCC2)CC1 (racemic)				Ratio [14]: 5; Ratio [15]: 5; Ratio Ki [1]: 0.56
COc1cc2c(cc1OC)CN(CCNC(=O)c1cc(C)ccc1OC)CC2		13.3		
CC(C)=CCN1CC[C@]2(C)c3cc(O)ccc3C[C@H]1[C@H]2C [(+)-PENTAZOCINE]				Ki [16]: 1130 nM
COc1cccc2c1CCC[C@H]2NC(=O)CN1CCN(C2CCCCC2)CC1				Ratio Ki [1]: 2; Ki [2]: 10.1 nM

Compound	Ratio Ki (Homo sapiens [6])	Ki [7] [nM]	Ki [13] [nM]	also measured
COc1cc2c(cc1OC)CN(CCNC(=O)c1cc(Br)ccc1OC)CC2		12.4		Ki [12]: 5480 nM
O=S(=O)(c1ccccc1)n1cc(CCCCN2CCC3(CC2)OCc2ccccc23)c2ccccc21		0.17	10	Ratio IC50 (Homo sapiens [17]): 59
CC(=O)[C@H]1CC[C@H]2[C@@H]3CCC4=CC(=O)CC[C@]4(C)[C@H]3CC[C@]12C [PROGESTERONE]				Kd [18]: 441 nM
Fc1ccc(C2=CC3CCC(C2)N3CCCCc2cn(-c3ccc(F)cc3)c3ccccc23)cc1 (stereo not drawn)		2.5	1200	Ratio IC50 (Homo sapiens [17]): 480
COc1ccc(CN2C3CCC2CC3)cc1OC		43		
CN1CC[C@@]2(c3cccc(O)c3)CC(=O)/C(=C/c3cccc(O)c3)[C@@H]1C2	0.07	153	10.5	
CCC(Oc1ccc(Cl)cc1)C(=O)OC1CC2CCC(C1)N2C (racemic)	> 15	67.5	> 1000	
COc1ccc(C(=O)NCCCCN2CCc3ccc([N+](=O)[O-])cc3C2)c(OC)c1OC	385	26.8	10300	
CN1CC[C@]2(c3cccc(O)c3)CC(=O)/C(=C/c3ccc(Cl)c(Cl)c3)[C@H]1C2	555	13.4	7440	
CN1CC[C@@]2(c3cccc(O)c3)CC(=O)/C(=C/c3ccc(Cl)c(Cl)c3)[C@@H]1C2	0.77	35.3	27.3	
CS(=O)(=O)n1cc(CCCCN2CCC3(CC2)OCc2ccccc23)c2ccccc21		0.05	1.3	Ratio IC50 (Homo sapiens [17]): 26
CN1CC[C@]2(c3cccc(O)c3)CC(=O)/C(=C/c3cccc(O)c3)[C@H]1C2	185	16.5	3060	
COc1ccc(C)cc1NC(=O)OC1CC2CCCC(C1)N2Cc1ccc(N(C)C)cc1 (stereo not drawn)	553	2.6	1440	
CC[C@H]1C[C@@H]2C[C@H]3c4[nH]c5ccc(OC)cc5c4CCN(C2)[C@@H]13 [IBOGAINE]			8550	
COc1cccc2c1CCCC2CCCN1CCC(C2CCCCC2)CC1 (stereo not drawn)				Ratio Ki [1]: 7.6; Ki [2]: 18.8 nM
